This note sets out measurements from US20260152503A1, “SPIROBICYCLIC COMPOUNDS” (ACERAND THERAPEUTICS (HONG KONG) LIMITED, priority 2022, published 2026).

Test [1] deals with T1, FGFR2 (Homo sapiens, UniProt P21802, K310R/N549K).
T1 construct: in FGFR aberrations of AN3CA (FGFR2/k310R, N549K); host or cells: AN3CA
Briefly: pERK potency assay (In Cell ELISA), AN3CA cells. It is filed as cell-based. As to conditions: for IC50: pERK, AN3CA (FGFR2/k310R, N549K) cells, 3 hours; for FGFR1 IC50/FGFR2 IC50 / FGFR3 IC50/FGFR2 IC50: selectivity ratio, pERK potency; for FGFR1 IC50/FGFR2 IC50: FGFR2 relative to FGFR1; for FGFR3 IC50/FGFR2 IC50: FGFR2 relative to FGFR3. A digest of the protocol:
(§1)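 Cells with FGFR aberrations (DMS114 FGFR1 amplification, RT112 FGFR3-TACC3 fusion, AN3CA FGFR2 K310R/N549K) exposed 3 h at 37 °C to compound, final 0.000038–10 μM (4-fold dilutions). pERK (Thr202/Tyr204) quantified by In-Cell ELISA chemiluminescence; IC50 from 4-parameter sigmoidal fit.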

Test [2] concerns the target T2, FGFR1 (Homo sapiens, UniProt P11362).
T2 construct: DMS114 (FGFR1 amplification); host or cells: DMS114
Briefly: pERK potency assay (In Cell ELISA), DMS114 cells. It is filed as cell-based. The following applies: DMS114 (FGFR1 amplification) cells, 3 hours. A digest of the protocol:
as §1

Test [3] has as its target T3, FGFR3 (Homo sapiens, UniProt P22607).
T3 construct: RT112 (FGFR3 overexpression/FGFR3-TACC3 fusion); host or cells: RT112; the other entry of the earlier key: TACC3 (Q9Y6A5, Transforming acidic coiled-coil-containing protein 3)
Briefly: pERK potency assay (In Cell ELISA), RT112 cells. Type of test: cell-based. The following applies: RT112 (FGFR3 overexpression/FGFR3-TACC3 fusion) cells, 3 hours. In a few lines: as §1

The test system of test [4] is AN3CA. Briefly: 2D cell proliferation assay, AN3CA. It is filed as cell-based. The following applies: Homo sapiens, AN3-CA, 96 hours, CTG, read-out: Cell Line, IC50 AN3CA. In a few lines: (§2)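 Cells seeded at 3000–5000 cells/well in RPMI-1640 or DMEM with 10% FBS, treated next day with compounds at 0.000038–10 μM final (4-fold, 10 points) for 96 h at 37°C, 5% CO2. Viability by CellTiter-Glo luminescence; IC50 from sigmoidal variable-slope fit.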

The target of test [5] is T4, Ba/F3 FGFR2-N549K (Homo sapiens, UniProt P21802, N549K, cells depend on it).
T4 construct: fused on or other part: Q9H694 (Protein bicaudal C homolog 1)
Briefly: 2D cell proliferation assay, Ba/F3 FGFR2-N549K. It is filed as cell-based, mouse. As to conditions: 96 hours, CTG, read-out: Cell Line, IC50 Ba/F3 FGFR2-N549K. A digest of the protocol: as §2

The target of test [6] is T5, Ba/F3 FGFR2-V564F (Homo sapiens, UniProt P21802, V564F, cells depend on it).
T5 construct: fused on or other part: Q9H694 (Protein bicaudal C homolog 1)
Briefly: 2D cell proliferation assay, Ba/F3 FGFR2-V564F. It is filed as cell-based, mouse. As to conditions: 96 hours, CTG, read-out: Cell Line, IC50 Ba/F3 FGFR2-V564F. In a few lines:
as §2

In test [7] the test system is KATO III. Briefly: 2D cell proliferation assay, KATO III. It is filed as cell-based. As to conditions: Homo sapiens, 96 hours, CTG, read-out: Cell Line, IC50 KATO III. A digest of the protocol:
as §2

The test system of test [8] is SNU-16. Briefly: 2D cell proliferation assay, SNU-16. Type of test: cell-based. The following applies: Homo sapiens, 96 hours, CTG, read-out: Cell Line, IC50 SNU-16. In a few lines:
as §2

T1 sequence (P21802 22-821 K310R/N549K): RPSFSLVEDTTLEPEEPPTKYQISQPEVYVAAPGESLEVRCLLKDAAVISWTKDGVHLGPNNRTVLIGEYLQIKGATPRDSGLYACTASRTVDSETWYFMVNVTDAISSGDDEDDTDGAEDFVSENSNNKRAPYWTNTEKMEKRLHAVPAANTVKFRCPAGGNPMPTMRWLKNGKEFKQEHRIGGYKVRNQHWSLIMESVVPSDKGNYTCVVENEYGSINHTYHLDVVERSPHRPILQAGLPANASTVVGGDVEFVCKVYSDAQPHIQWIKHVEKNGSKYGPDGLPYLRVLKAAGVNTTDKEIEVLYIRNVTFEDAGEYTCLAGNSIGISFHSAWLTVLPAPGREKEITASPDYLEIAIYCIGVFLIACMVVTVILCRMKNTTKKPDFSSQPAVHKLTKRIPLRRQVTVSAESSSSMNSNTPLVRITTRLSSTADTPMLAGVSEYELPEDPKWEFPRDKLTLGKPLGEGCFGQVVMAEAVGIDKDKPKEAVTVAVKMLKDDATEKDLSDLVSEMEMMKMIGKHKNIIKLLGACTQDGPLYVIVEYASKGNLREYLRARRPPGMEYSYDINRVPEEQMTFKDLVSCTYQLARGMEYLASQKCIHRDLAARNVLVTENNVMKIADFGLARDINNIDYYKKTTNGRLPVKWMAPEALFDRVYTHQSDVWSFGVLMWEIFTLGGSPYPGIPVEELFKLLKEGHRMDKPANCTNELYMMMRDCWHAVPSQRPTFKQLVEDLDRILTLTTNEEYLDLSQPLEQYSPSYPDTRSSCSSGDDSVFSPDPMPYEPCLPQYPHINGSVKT
T2 sequence (P11362 22-822): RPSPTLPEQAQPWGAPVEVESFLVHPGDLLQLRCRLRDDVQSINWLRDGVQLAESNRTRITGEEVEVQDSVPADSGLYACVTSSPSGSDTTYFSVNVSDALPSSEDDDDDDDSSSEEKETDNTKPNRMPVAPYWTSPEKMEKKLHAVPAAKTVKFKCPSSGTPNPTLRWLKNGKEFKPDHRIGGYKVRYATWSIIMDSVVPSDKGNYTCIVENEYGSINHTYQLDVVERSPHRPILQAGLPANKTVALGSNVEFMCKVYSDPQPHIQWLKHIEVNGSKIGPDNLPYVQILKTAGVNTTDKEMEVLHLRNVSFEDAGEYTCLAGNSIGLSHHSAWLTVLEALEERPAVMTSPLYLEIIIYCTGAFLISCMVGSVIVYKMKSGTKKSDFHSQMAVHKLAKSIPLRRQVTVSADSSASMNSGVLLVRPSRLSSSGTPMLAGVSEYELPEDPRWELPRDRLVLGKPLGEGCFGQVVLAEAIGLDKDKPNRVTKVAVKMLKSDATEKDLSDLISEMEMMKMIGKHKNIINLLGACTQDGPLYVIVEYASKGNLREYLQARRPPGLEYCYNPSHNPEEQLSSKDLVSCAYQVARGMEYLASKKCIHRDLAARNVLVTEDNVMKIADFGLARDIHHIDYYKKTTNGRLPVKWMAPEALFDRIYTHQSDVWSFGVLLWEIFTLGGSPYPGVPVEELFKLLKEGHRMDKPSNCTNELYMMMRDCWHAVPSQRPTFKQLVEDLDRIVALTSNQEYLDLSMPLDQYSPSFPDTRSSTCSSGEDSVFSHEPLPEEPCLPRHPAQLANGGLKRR
T5 sequence (P21802 whole entry V564F, the tested form may be a part): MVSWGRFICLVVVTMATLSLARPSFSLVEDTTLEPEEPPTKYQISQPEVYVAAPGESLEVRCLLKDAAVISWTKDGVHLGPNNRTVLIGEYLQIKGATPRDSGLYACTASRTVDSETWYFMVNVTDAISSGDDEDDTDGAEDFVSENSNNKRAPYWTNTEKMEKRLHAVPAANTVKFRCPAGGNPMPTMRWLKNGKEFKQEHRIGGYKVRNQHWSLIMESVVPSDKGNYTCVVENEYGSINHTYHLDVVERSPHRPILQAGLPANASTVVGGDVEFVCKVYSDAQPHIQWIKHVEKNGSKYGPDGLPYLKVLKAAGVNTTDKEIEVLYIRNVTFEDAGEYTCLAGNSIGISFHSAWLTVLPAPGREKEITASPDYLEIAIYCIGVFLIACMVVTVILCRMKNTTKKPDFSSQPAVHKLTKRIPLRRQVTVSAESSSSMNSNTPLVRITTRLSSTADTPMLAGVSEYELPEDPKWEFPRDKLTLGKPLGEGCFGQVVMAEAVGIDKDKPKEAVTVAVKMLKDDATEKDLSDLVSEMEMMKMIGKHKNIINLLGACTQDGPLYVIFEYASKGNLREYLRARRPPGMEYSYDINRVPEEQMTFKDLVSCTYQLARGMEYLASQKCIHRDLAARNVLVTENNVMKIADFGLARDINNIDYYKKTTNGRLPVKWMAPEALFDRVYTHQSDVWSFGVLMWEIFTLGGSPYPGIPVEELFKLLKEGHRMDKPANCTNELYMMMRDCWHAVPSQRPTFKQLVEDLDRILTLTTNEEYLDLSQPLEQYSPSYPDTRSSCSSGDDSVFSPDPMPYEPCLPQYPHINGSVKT
T4 sequence (P21802 whole entry N549K, the tested form may be a part): as the sequence (P21802 whole entry V564F, the tested form may be a part) above, with N549K, F564V counted along it

In the case of `C=CC(=O)N1CCC2(CC=C(c3c(-c4cnccn4)c4c(N)ncnc4n3C)CC2)CC1` [Example 59, 1-(9-(4-amino-7-methyl-5-(pyrazin-2-yl)-7H-pyrrolo[2,3-d]pyrimidin-6-yl)-3-azaspiro[5.5]undec-8-en-3-yl)prop-2-en-1-one], the IC50 was 1 to 10 nM in test [1]; greater than 100 nM in test [2]; greater than 100 nM in test [3]; 30 to 100 nM in test [4]; 30 to 100 nM in test [7]; 30 to 100 nM in test [8]. Also, the “FGFR1 IC50/FGFR2 IC50” value in test [1] was “F (a selectivity ratio greater than 50 but less than or equal to 150)”. The “FGFR3 IC50/FGFR2 IC50” value in test [1] is “H (a selectivity ratio greater than 500 but less than or equal to 1000)”. For the same compound, the GI50 is 1 to 10 nM in test [5] and no more than 1 nM in test [6].
Turning to `C=CC(=O)N1CCC2(CC=C(c3c(-c4ccc(OC)nc4)c4c(N)ncnc4n3C)CC2)CC1C` (centres unmarked) [Example 39, 1-(9-(4-amino-5-(6-methoxypyridin-3-yl)-7-methyl-7H-pyrrolo[2,3-d]pyrimidin-6-yl)-2-methyl-3-azaspiro[5.5]undec-8-en-3-yl)prop-2-en-1-one], the IC50 in test [1] is 1 to 10 nM; in test [2] it was greater than 100 nM; in test [3] it was greater than 100 nM; in test [4], 10 to 30 nM; in test [7], 10 to 30 nM; in test [8] it was 10 to 30 nM. Further, the “FGFR1 IC50/FGFR2 IC50” value in test [1] is “G (a selectivity ratio greater than 150 but less than or equal to 500)”. The “FGFR3 IC50/FGFR2 IC50” value in test [1] is given as “I (a selectivity ratio greater than 1000 but less than or equal to 2000)”. Besides, the GI50 in test [5] is 1 to 10 nM; in test [6], 10 to 30 nM.
